According to patent US7598010B2, “Triarylamine dimer derivative having amorphous phase” (Orient Chemical Industries, Ltd., priority 2003, dated 2009):
Converted amounts (≈) assume the structure as drawn. Where two headings read alike, the source gives them in different places.

How the values were obtained:
[1] = Determination of the solubility in organic solvents; assay type: physicochemical; conditions: for solubility: organic solvent or mixture, thermodynamic from solid; for solubility / Solubility (g/ml) Xylene / Solubility (g/ml) DMF / Solubility (g/ml) THF / Solubility (g/ml) Chloroform / Solubility (g/ml) Dichloromethane: 5 ml, added until saturation; for Solubility (g/ml) Xylene: solvent xylene
Experimental: (Determination of the Solubility)
Respectively, 5 ml of the solvents of THF, DMF, xylene, chloroform and dichloromethane were measured and poured into 20 ml of tubular bottoms with screw caps. […] The solubility (g/ml) to the respective solvent was determined from the weight of the triarylamine dimer derivative added until saturation.

[2] = Differential scanning calorimetry (DSC), glass transition point; assay type: physicochemical; conditions: determined by DSC
Description: (Differential Scanning Calorimetry (DSC))
The results of the glass transition point (Tg) determined by DSC of the triarylamine dimer derivatives obtained in Examples 1 to 6 are shown in Table 3.

[3] = chloroform, solvent chloroform, read-out: Solubility (g/ml) Chloroform
[4] = dichloromethane, solvent dichloromethane, read-out: Solubility (g/ml) Dichloromethane

Structure (SMILES) | solubility ([1]; DMF, solvent DMF, read-out: Solubility (g/ml) DMF) [g/mL] | solubility ([1]; THF, solvent THF, read-out: Solubility (g/ml) THF) [g/mL] | solubility [1, 3] [g/mL] | solubility [1, 4] [g/mL] | Solubility (g/ml) Xylene [1] [g/mL] | Solubility (g/ml) DMF ([1]; solvent DMF) [g/mL] | Solubility (g/ml) THF ([1]; solvent THF) [g/mL] | Solubility (g/ml) Chloroform ([1]; solvent chloroform) [g/mL] | Solubility (g/ml) Dichloromethane ([1]; solvent dichloromethane) [g/mL] | Glass Transition Point(Tg) [2] [Degrees C.] | Solubility in organic solvent (in words) [1] | Solubility compared with alpha-NPD (times higher) ([1]; organic solvents of Table 2)
Cc1ccc(N(c2ccccc2)c2ccc(-c3ccc(N(c4ccccc4)c4ccc(C)cc4)cc3)cc2)cc1 [Comparative Example2, N,N′-diphenyl-N,N′-bis(4-tolyl)-4,4′-diaminobiphenyl] | 0.036 (≈ 69.7 mM) | 0.413 (≈ 799 mM) | 0.613 (≈ 1190 mM) | 0.397 (≈ 768 mM) | 0.152 (≈ 294 mM) |  |  |  |  |  |  | 
c1ccc(N(c2ccc(-c3ccc(N(c4ccccc4)c4cccc5ccccc45)cc3)cc2)c2cccc3ccccc23)cc1 [Comparative Example4, N,N′-diphenyl-N,N′-bis(1-naphthyl)-4,4′-diaminobiphenyl] |  |  |  |  | 0.002 (≈ 3.4 mM) | 0.001 (≈ 1.7 mM) | 0.009 (≈ 15.3 mM) | 0.024 (≈ 40.8 mM) | 0.021 (≈ 35.7 mM) |  |  | 
c1ccc(N(c2ccc(-c3ccc(N(c4ccccc4)c4ccc5ccccc5c4)cc3)cc2)c2ccc3ccccc3c2)cc1 [Comparative Example5, N,N′-diphenyl-N,N′-bis(2-naphthyl)-4,4′-diaminobiphenyl] |  |  |  |  | 0.103 (≈ 175 mM) | 0.012 (≈ 20.4 mM) | 0.235 (≈ 399 mM) | 0.395 (≈ 671 mM) | 0.195 (≈ 331 mM) |  |  | 
c1ccc(N(c2ccc(-c3ccc(N(c4ccccc4)c4ccc5ccccc5c4)cc3)cc2)c2ccc3ccccc3c2)cc1 [Comparative Example6, N,N′-diphenyl-N,N′-bis(2-naphthyl)-4,4′-diaminobiphenyl] |  |  |  |  | 0.162 (≈ 275 mM) | 0.033 (≈ 56.1 mM) | 0.270 (≈ 459 mM) | 0.452 (≈ 768 mM) | 0.226 (≈ 384 mM) |  |  | 
c1ccc(N(c2ccc(-c3ccc(N(c4ccccc4)c4ccc5ccccc5c4)cc3)cc2)c2ccc3ccccc3c2)cc1 [Comparative Example7, N,N′-diphenyl-N,N′-bis(2-naphthyl)-4,4′-diaminobiphenyl] |  |  |  |  | 0.155 (≈ 263 mM) | 0.028 (≈ 47.6 mM) | 0.202 (≈ 343 mM) | 0.368 (≈ 625 mM) | 0.209 (≈ 355 mM) |  |  | 
Cc1cccc(N(c2ccccc2)c2ccc(-c3ccc(N(c4ccccc4)c4cccc(C)c4)cc3)cc2)c1 [Example1, N,N′-diphenyl-N,N′-bis(3-tolyl)-4,4′-diaminobiphenyl] |  |  |  |  |  |  |  |  |  | 63.2 |  | 
Cc1ccc(N(c2ccccc2)c2ccc(-c3ccc(N(c4ccccc4)c4ccc(C)cc4)cc3)cc2)cc1 [Example2, N,N′-diphenyl-N,N′-bis(4-tolyl)-4,4′-diaminobiphenyl] |  |  |  |  | 0.334 (≈ 646 mM) | 0.060 (≈ 116 mM) | 0.732 (≈ 1420 mM) | 0.892 (≈ 1730 mM) | 0.696 (≈ 1350 mM) | 75.0 |  | 
c1ccc(N(c2ccc(-c3ccc(N(c4ccccc4)c4cccc5ccccc45)cc3)cc2)c2cccc3ccccc23)cc1 [Example4, N,N′-diphenyl-N,N′-bis(1-naphthyl)-4,4′-diaminobiphenyl] |  |  | 0.043 (≈ 73 mM) | 0.029 (≈ 49.3 mM) | 0.009 (≈ 15.3 mM) | 0.007 (≈ 11.9 mM) | 0.028 (≈ 47.6 mM) |  |  | 98.8 |  | 
c1ccc(N(c2ccc(-c3ccc(N(c4ccccc4)c4ccc5ccccc5c4)cc3)cc2)c2ccc3ccccc3c2)cc1 [Example5, N,N′-diphenyl-N,N′-bis(2-naphthyl)-4,4′-diaminobiphenyl] |  |  | 0.632 (≈ 1070 mM) |  | 0.558 (≈ 948 mM) | 0.301 (≈ 511 mM) | > 0.795 |  | 0.471 (≈ 800 mM) | 99.4 | very high solubility | ten to several hundreds times higher
c1ccc(N(c2ccc(-c3ccc(N(c4ccccc4)c4ccc5ccccc5c4)cc3)cc2)c2ccc3ccccc3c2)cc1 [Example6, N,N′-diphenyl-N,N′-bis(2-naphthyl)-4,4′-diaminobiphenyl] |  |  |  |  |  |  | > 0.795 |  |  | 99.4 |  | 
